Source: ChEMBL document CHEMBL2074419, “Induction of multidrug resistance protein 3 in rat liver is associated with altered vectorial excretion of acetaminophen metabolites” (Drug Metab Dispos, 2003)

Key:
Format in all cases: functional, organism-based, Sprague-Dawley
[1] = target: T1, ATP-binding cassette sub-family C member 3 (Rattus norvegicus, UniProt O88563); test: (§1) TP_TRANSPORTER: quantitative PCR in vivo, liver of SD rat
[2] = target: T1, ATP-binding cassette sub-family C member 3; test: (§2) TP_TRANSPORTER: Western in vivo, liver of SD rat
[3] = target: T2, ATP-binding cassette sub-family C member 2 (Rattus norvegicus, UniProt Q63120); test: as §1
T2 sequence (Q63120 whole entry): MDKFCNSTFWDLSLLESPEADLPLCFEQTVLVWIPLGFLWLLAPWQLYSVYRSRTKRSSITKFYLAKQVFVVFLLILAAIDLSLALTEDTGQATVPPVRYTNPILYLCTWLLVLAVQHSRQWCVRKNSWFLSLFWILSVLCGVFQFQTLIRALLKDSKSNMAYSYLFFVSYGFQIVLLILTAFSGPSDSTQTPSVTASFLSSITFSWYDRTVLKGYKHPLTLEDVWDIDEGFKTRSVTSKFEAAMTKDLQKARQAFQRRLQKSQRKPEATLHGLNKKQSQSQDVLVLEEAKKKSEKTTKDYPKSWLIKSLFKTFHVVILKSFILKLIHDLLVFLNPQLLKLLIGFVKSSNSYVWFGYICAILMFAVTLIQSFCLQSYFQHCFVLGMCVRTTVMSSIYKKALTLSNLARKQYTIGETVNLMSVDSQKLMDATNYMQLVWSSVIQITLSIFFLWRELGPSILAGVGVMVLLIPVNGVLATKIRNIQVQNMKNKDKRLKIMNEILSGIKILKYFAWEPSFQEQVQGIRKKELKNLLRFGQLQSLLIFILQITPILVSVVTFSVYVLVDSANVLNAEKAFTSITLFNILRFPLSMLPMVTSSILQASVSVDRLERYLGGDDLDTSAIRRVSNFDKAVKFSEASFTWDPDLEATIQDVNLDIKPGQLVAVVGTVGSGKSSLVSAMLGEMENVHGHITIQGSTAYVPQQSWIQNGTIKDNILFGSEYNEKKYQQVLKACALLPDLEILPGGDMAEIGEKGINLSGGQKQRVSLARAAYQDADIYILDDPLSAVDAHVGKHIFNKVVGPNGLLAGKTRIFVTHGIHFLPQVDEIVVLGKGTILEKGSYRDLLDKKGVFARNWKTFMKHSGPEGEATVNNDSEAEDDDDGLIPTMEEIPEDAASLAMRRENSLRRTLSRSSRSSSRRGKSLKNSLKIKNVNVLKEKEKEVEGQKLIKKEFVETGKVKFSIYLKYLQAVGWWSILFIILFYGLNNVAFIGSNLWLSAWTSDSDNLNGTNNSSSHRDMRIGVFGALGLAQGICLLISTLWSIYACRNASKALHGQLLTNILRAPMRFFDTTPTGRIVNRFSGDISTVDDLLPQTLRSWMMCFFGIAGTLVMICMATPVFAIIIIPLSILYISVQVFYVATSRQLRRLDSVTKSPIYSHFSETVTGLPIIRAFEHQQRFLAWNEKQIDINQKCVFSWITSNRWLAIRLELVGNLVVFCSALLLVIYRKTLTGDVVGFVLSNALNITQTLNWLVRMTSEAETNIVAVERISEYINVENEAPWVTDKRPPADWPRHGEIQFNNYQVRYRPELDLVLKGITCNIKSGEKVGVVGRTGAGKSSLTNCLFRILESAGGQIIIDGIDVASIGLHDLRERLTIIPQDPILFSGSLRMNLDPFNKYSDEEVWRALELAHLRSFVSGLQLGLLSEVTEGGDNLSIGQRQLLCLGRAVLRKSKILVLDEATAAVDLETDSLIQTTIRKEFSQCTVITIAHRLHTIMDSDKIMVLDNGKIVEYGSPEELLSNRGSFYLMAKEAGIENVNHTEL

[4] = target: T3, ATP-binding cassette subfamily C member 4 (Rattus norvegicus, UniProt F1M3J4); test: as §1
T3 sequence (F1M3J4 whole entry): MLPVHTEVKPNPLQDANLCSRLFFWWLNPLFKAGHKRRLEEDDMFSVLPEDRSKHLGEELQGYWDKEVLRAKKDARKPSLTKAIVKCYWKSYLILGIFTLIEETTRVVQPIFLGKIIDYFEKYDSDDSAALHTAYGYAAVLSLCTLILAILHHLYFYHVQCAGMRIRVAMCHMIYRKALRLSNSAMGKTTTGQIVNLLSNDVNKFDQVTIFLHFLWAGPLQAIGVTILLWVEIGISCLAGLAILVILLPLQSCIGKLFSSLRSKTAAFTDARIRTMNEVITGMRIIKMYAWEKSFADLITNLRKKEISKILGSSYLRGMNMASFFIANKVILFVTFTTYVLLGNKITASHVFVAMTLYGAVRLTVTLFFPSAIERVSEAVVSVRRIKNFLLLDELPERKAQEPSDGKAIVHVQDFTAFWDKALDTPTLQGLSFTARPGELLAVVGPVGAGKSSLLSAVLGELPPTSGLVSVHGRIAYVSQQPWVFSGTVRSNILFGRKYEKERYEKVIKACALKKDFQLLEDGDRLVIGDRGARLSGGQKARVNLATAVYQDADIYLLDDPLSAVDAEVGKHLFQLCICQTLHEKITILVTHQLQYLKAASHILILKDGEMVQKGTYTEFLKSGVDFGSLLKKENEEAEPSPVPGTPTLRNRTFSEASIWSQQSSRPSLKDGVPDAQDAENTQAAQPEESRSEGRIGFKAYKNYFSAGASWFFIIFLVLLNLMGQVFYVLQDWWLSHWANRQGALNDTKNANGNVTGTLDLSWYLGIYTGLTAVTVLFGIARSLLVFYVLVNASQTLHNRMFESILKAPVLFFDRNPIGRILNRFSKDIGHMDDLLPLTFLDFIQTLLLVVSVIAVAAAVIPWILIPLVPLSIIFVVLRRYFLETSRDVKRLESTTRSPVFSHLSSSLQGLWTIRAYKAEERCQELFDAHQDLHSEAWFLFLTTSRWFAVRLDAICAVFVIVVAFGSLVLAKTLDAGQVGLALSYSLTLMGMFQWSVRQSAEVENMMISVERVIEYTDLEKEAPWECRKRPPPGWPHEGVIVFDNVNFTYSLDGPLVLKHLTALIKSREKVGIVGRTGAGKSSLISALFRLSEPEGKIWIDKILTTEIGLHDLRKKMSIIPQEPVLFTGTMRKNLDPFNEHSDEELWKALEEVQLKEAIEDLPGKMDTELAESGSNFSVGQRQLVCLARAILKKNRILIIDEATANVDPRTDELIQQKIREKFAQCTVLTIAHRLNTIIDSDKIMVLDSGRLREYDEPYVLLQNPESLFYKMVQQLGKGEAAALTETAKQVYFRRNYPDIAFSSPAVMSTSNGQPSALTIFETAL

[5] = target: T2, ATP-binding cassette sub-family C member 2; test: as §2
[6] = target: T1, ATP-binding cassette sub-family C member 3; test: (§3) TP_TRANSPORTER: quantitative PCR in vivo, kidney of SD rat
[7] = target: T2, ATP-binding cassette sub-family C member 2; test: as §3
[8] = target: T3, ATP-binding cassette subfamily C member 4; test: as §3

Measured: Activity

T1 sequence (O88563 whole entry): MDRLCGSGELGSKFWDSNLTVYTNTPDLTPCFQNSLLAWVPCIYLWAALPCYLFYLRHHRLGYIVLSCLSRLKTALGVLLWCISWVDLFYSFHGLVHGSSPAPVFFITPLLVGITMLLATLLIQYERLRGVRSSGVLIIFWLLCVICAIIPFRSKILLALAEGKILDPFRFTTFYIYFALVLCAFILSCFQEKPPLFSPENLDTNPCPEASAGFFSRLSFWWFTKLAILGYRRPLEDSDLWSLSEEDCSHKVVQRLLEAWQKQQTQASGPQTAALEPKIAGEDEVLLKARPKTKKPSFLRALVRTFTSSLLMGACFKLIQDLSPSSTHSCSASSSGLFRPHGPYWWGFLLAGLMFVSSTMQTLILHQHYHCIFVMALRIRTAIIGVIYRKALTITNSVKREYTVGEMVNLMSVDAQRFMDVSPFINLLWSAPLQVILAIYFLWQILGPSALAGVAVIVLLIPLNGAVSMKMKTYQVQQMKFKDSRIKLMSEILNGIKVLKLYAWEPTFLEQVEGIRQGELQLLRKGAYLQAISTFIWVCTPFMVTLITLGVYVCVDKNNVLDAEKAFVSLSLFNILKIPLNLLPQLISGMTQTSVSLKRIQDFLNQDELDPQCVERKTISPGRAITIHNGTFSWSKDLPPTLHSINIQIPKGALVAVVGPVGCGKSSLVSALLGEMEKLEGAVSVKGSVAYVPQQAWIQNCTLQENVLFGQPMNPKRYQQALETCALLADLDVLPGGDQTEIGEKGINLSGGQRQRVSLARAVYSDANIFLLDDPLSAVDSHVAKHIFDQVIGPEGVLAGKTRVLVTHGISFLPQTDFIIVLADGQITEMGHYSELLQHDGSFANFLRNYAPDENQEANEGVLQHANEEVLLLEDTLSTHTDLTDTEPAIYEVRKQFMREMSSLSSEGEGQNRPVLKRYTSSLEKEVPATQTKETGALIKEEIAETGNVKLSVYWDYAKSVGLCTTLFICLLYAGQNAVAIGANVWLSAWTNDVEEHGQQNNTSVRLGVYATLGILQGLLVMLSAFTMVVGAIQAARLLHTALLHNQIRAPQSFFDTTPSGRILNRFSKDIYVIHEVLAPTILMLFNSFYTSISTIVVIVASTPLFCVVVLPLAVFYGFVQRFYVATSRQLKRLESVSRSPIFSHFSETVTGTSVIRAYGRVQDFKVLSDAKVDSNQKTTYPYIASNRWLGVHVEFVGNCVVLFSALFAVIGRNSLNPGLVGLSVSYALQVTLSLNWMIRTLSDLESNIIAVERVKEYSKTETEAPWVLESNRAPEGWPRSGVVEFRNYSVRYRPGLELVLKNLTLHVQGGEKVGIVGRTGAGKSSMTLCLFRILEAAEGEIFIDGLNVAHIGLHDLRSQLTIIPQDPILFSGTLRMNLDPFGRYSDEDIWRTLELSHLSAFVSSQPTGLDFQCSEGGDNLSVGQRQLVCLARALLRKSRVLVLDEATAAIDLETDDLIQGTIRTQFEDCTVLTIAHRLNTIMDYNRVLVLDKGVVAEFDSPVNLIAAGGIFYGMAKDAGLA

CCC1(c2ccccc2)C(=O)NC(=O)NC1=O [PHENOBARBITAL]
inducer []: [1] | [2]

c1ccc([C@H]2O[C@@H]2c2ccccc2)cc1 (relative stereo)
inducer []: [3] | [1] | [4] | [5] | [2]

Cc1c(-c2cnccn2)ssc1=S [OLTIPRAZ]
inducer []: [6] | [3] | [1] | [5] | [2]

C=CCSCC=C [DIALLYL SULFIDE]
not listed: [3]
inducer []: all other assays above
